According to ChEMBL document CHEMBL4613212, “Insights of synthetic analogues of anti-leprosy agents” (Bioorg Med Chem, 2019):
Converted amounts (≈) assume the structure as drawn.

What was measured:
[1] = tested on: Mycolicibacterium smegmatis; experiment: Antimycobacterial activity against Mycobacterium smegmatis mc2 155 incubated for 2 days by spectrophotometric based assay; type: functional; settings: MC2 155, 48 h
[2] = tested on: Mycolicibacterium smegmatis; experiment: Antimicrobial activity against Mycobacterium smegmatis incubated for 24 hrs by broth microdilution assay; type: functional
Mycolicibacterium aurum = experiment: Antimicrobial activity against Mycobacterium aurum incubated for 24 hrs by broth microdilution assay; type: functional
Mycolicibacterium vaccae = experiment: Antimicrobial activity against Mycobacterium vaccae incubated for 24 hrs by broth microdilution assay; type: functional
[3] = tested on: Mycolicibacterium fortuitum; experiment: Antimicrobial activity against Mycobacterium fortuitum incubated for 24 hrs by broth microdilution assay; type: functional
Mycobacterium leprae [4] = experiment: Anti-leprotic activity against Mycobacterium leprae infected in 538 CBA mouse assessed as number of Mycobacterium leprae in paw pads at 2 mg/kg administrated via gastric tube 5 times a week and measured 7 months post infection; type: functional
Mycobacterium leprae [5] = experiment: Anti-leprotic activity against Mycobacterium leprae infected in 538 CBA mouse assessed as number of Mycobacterium leprae in paw pads at 6 mg/kg administrated via gastric tube 5 times a week and measured 7 months post infection; type: functional
Enterococcus faecalis [6] = experiment: Antimicrobial activity against Enterococcus faecalis ATCC 29212 by broth microdilution assay; type: functional
Staphylococcus aureus = experiment: Antimicrobial activity against Staphylococcus aureus ATCC 25923 by broth microdilution assay; type: functional
Enterococcus faecalis [7] = experiment: Antimicrobial activity against Enterococcus faecalis ATCC 51922 by broth microdilution assay; type: functional
Listeria monocytogenes = experiment: Antimicrobial activity against Listeria monocytogenes ATCC 1911 by broth microdilution assay; type: functional
Klebsiella pneumoniae = experiment: Antimicrobial activity against Klebsiella pneumoniae 700603 by broth microdilution assay; type: functional
Pseudomonas aeruginosa = experiment: Antimicrobial activity against Pseudomonas aeruginosa ATCC 27853 by broth microdilution assay; type: functional
Escherichia coli [8] = experiment: Antimicrobial activity against Escherichia coli ATCC 35218 by broth microdilution assay; type: functional
Escherichia coli [9] = experiment: Antimicrobial activity against Escherichia coli ATCC 25922 by broth microdilution assay; type: functional
[10] = tested on: Mycobacterium tuberculosis; experiment: Antitubercular activity against Mycobacterium tuberculosis H37Rv ATCC 27294 incubated for 7 days by microplate alamar blue assay; type: functional; settings: H37Rv ATCC 27294, 168 h
Plasmodium berghei = experiment: Antimalarial activity against Plasmodium berghei infected in albino mouse assessed survival against infection at 400 mg/kg, sc administered as single dose; type: functional
Mycobacterium leprae [11] = experiment: Anti-leprotic activity against Mycobacterium leprae infected in albino mouse assessed survival against infection at 400 mg/kg, sc administered 58 days post-infection and subsequent compound dosing at 200 mg/kg at 0.5, 1 or 2 months interval; type: functional
[12] = Drug excretion in rat urine at 400 mg/kg, sc administered as single dose measured after 30 days; type: ADME, organism-based; settings: read-out: Drug excretion
[13] = Half life in rat at 400 mg/kg, sc administered as single dose; type: ADME, organism-based; settings: in vivo
Monocyte [14] = experiment: Antiinflammatory activity in human monocytes assessed as inhibition of LPS-induced TNFaplha production at 50 uM preincubated for 15 mins followed by LPS addition and measured after 4 hrs by ELISA relative to control; type: functional
[15] = Cytotoxicity against LPS-induced human monocytes assessed as cell viability at 50 uM by tryphan blue staining based assay relative to control; parameters: species or system Monocyte; settings: read-out: Activity
[16] = tested on: Mycobacterium tuberculosis; experiment: Antitubercular activity against Mycobacterium tuberculosis H37Rv ATCC 27294 assessed as growth inhibition at 6.25 ug/ml by microplate alamar blue assay relative to control; type: functional
[17] = Selectivity index, ratio of IC50 for African green monkey Vero cells to MIC for antitubercular activity against Mycobacterium tuberculosis H37Rv; type: toxicity; settings: Vero cells, read-out: Selectivity Index
[18] = Inhibition of Mycobacterium smegmatis ATCC 607 dihydrofolic reductase; parameters: species or system Mycolicibacterium smegmatis
[19] = tested on: Mycolicibacterium smegmatis; experiment: Inhibition of Mycobacterium smegmatis ATCC 607 dihydrofolic reductase assessed as ratio of Km to Ki
[20] = tested on: Mycolicibacterium smegmatis; experiment: Antimicrobial activity against Mycobacterium smegmatis ATCC 607; type: functional; settings: Mycolicibacterium smegmatis, ATCC 607; read-out: MIC
[21] = tested on: Mycobacterium tuberculosis; experiment: Antitubercular activity against Mycobacterium tuberculosis H37Rv ATCC 27294 assessed as inhibition of [3H]-thymidine incorporation relative to control; type: functional
Monocyte [22] = experiment: Antiinflammatory activity in human monocytes assessed as inhibition of LPS-induced TNFaplha production at 25 uM preincubated for 15 mins followed by LPS addition and measured after 4 hrs by ELISA relative to control; type: functional

CCCCCCCCC(COC1CCCC1)C(=O)O (stereo not drawn)
MIC99 [1]: 3600 µM (≈ 973 µg/mL)

O=C1c2ccccc2C(=O)N1c1cnc(S(=O)(=O)Nc2ccccn2)cn1
MIC99 [1]: 3000 µM (≈ 1140 µg/mL)

CN(C)c1ncnc(SC(=S)N2CCCC2)c1[N+](=O)[O-]
MIC [2]: 3.12 µg/mL (≈ 9.96 µM) | MIC (Mycolicibacterium aurum): 3.12 µg/mL (≈ 9.96 µM) | MIC (Mycolicibacterium vaccae): 1.56 µg/mL (≈ 4.98 µM) | MIC [3]: 1.56 µg/mL (≈ 4.98 µM) | Activity (Mycobacterium leprae [4]): 4.43 ×10⁷ No_unit | Activity (Mycobacterium leprae [5]): 2.14 ×10⁷ No_unit

COc1ccc(/C=N/NC(=S)Nc2ccc(C(F)(F)F)cc2)cc1
MIC (Enterococcus faecalis [6]): 400 µg/mL (≈ 1130 µM) | MIC (Staphylococcus aureus): 400 µg/mL (≈ 1130 µM) | MIC (Enterococcus faecalis [7]): 400 µg/mL (≈ 1130 µM) | MIC (Listeria monocytogenes): 800 µg/mL (≈ 2260 µM) | MIC (Klebsiella pneumoniae): 400 µg/mL (≈ 1130 µM) | MIC (Pseudomonas aeruginosa): 400 µg/mL (≈ 1130 µM) | MIC (Escherichia coli [8]): 800 µg/mL (≈ 2260 µM) | MIC (Escherichia coli [9]): 400 µg/mL (≈ 1130 µM) | MIC [10]: 200 µg/mL (≈ 566 µM)

CC(=O)N(C)c1ccc(S(=O)(=O)c2ccc(N(C)C(C)=O)cc2)cc1
Survival (Plasmodium berghei): 9 weeks | Survival (Mycobacterium leprae [11]): >8 weeks | dose excreted at 720 h [12]: 85% | half-life [13]: 10 days

O=C1c2ccccc2C(=O)N1c1ccc(S(=O)(=O)Nc2ccncn2)cc1
MIC99 [1]: 2300 µM (≈ 875 µg/mL)

O=C1c2c(F)c(F)c(F)c(F)c2C(=O)N1c1cnc(O)nc1O
inhibition at 50 µM (Monocyte [14]): < 10% | viability at 50 µM [15]: 95%

COc1cc(Sc2cnc(N)nc2N)cc(OC)c1Br
Activity (Mycobacterium leprae [4]): 0.66 ×10⁷ No_unit | Activity (Mycobacterium leprae [5]): 0.02 ×10⁷ No_unit

Clc1nc(-c2cccs2)c2ncn(Cc3ccccc3)c2n1
inhibition at 6.25 µg/mL [16]: > 90% | selectivity ratio [17]: > 6.4

O=C1c2c(F)c(F)c(F)c(F)c2C(=O)N1c1ccc(F)c(F)c1
inhibition at 50 µM (Monocyte [14]): < 10% | viability at 50 µM [15]: 74%

Nc1ccc(F)c(F)c1
inhibition at 50 µM (Monocyte [14]): 19% | viability at 50 µM [15]: 99%

O=C1c2c(F)c(F)c(F)c(F)c2C(=O)N1c1cn(-c2ccccc2)c(=O)[nH]c1=O
inhibition at 50 µM (Monocyte [14]): < 10% | viability at 50 µM [15]: 95%

FC(F)(F)c1ccc(NC(=S)N/N=C/c2ccc(Br)cc2)cc1
MIC (Enterococcus faecalis [6]): 400 µg/mL (≈ 994 µM) | MIC (Staphylococcus aureus): 400 µg/mL (≈ 994 µM) | MIC (Enterococcus faecalis [7]): 400 µg/mL (≈ 994 µM) | MIC (Listeria monocytogenes): 400 µg/mL (≈ 994 µM) | MIC (Klebsiella pneumoniae): 400 µg/mL (≈ 994 µM) | MIC (Pseudomonas aeruginosa): 400 µg/mL (≈ 994 µM) | MIC (Escherichia coli [8]): 800 µg/mL (≈ 1990 µM) | MIC (Escherichia coli [9]): 400 µg/mL (≈ 994 µM) | MIC [10]: 400 µg/mL (≈ 994 µM)

CC(C)CCc1cnc2nc(N)nc(N)c2n1
Ki [18]: 1 nM | Ratio [19]: 4100 | MIC [20]: 775 µM (≈ 180 µg/mL)

c1ccc(Cn2cnc3c(-c4ccco4)ncnc32)cc1 [9-BENZYL-6-(FURAN-2-YL)-9H-PURINE]
inhibition at 6.25 µg/mL [16]: > 90% | selectivity ratio [17]: 2.7 | inhibition (INH) [21]: 59%

CN(C)c1ccc(/C=N/NC(=S)Nc2ccc(C(F)(F)F)cc2)cc1
MIC (Enterococcus faecalis [6]): 400 µg/mL (≈ 1090 µM) | MIC (Staphylococcus aureus): 400 µg/mL (≈ 1090 µM) | MIC (Enterococcus faecalis [7]): 400 µg/mL (≈ 1090 µM) | MIC (Listeria monocytogenes): 400 µg/mL (≈ 1090 µM) | MIC (Klebsiella pneumoniae): 400 µg/mL (≈ 1090 µM) | MIC (Pseudomonas aeruginosa): 400 µg/mL (≈ 1090 µM) | MIC (Escherichia coli [8]): 400 µg/mL (≈ 1090 µM) | MIC (Escherichia coli [9]): 400 µg/mL (≈ 1090 µM) | MIC [10]: 200 µg/mL (≈ 546 µM)

CCCCCc1cnc2nc(N)nc(N)c2n1
Ki [18]: 1.2 nM | Ratio [19]: 3420 | MIC [20]: 862 µM (≈ 200 µg/mL)

N#Cc1ccc(/C=N/NC(=S)Nc2ccc(C(F)(F)F)cc2)cc1
MIC (Enterococcus faecalis [6]): 200 µg/mL (≈ 574 µM) | MIC (Staphylococcus aureus): 400 µg/mL (≈ 1150 µM) | MIC (Enterococcus faecalis [7]): 400 µg/mL (≈ 1150 µM) | MIC (Listeria monocytogenes): 400 µg/mL (≈ 1150 µM) | MIC (Klebsiella pneumoniae): 400 µg/mL (≈ 1150 µM) | MIC (Pseudomonas aeruginosa): 400 µg/mL (≈ 1150 µM) | MIC (Escherichia coli [8]): 400 µg/mL (≈ 1150 µM) | MIC (Escherichia coli [9]): 400 µg/mL (≈ 1150 µM) | MIC [10]: 200 µg/mL (≈ 574 µM)

O=C1CCC(N2C(=O)c3ccccc3C2=O)C(=O)N1 (stereo not drawn) [THALIDOMIDE]
inhibition at 50 µM (Monocyte [14]): 15% | inhibition at 25 µM (Monocyte [22]): < 10% | viability at 50 µM [15]: 98%

COc1ncnc(SC(=S)N2CCCC2)c1[N+](=O)[O-]
MIC [2]: 3.12 µg/mL (≈ 10.4 µM) | MIC (Mycolicibacterium aurum): 1.56 µg/mL (≈ 5.19 µM) | MIC (Mycolicibacterium vaccae): 0.8 µg/mL (≈ 2.66 µM) | MIC [3]: 1.56 µg/mL (≈ 5.19 µM) | Activity (Mycobacterium leprae [4]): 0.07 ×10⁷ No_unit | Activity (Mycobacterium leprae [5]): 0.029 ×10⁷ No_unit

CCC1(N2C(=O)c3ccccc3C2=O)C(=O)NC(=O)N(C2CCCCC2)C1=O (stereo not drawn)
inhibition at 50 µM (Monocyte [14]): < 10% | viability at 50 µM [15]: 87%

COc1cc(Cc2cnc(N)nc2N)cc(OC)c1OC [TRIMETHOPRIM]
Ki [18]: 70 nM | Ratio [19]: 54.6 | MIC [20]: 34 µM (≈ 9.87 µg/mL)

CC(=O)Nc1ccc(S(=O)(=O)c2ccc(N(C)C(C)=O)cc2)cc1
Survival (Plasmodium berghei): 6 weeks | Survival (Mycobacterium leprae [11]): >8 weeks | dose excreted at 720 h [12]: 44% | half-life [13]: 27 days
